Structures can show the parent of a compound that is named as a salt.
Legend:
[1] = Pharmacokinetic parameters following intravenous administration in rats (B-6); type: in vivo, male Wistar rats; settings: for MRT / half-life: male, Wistar, rat, plasma; for MRT: mean residence time; for half-life: terminal half-life
From the text: • Klaus Witte, Kai Hu, Johanna Swiatek, Claudia Müssig, Georg Ertl and Bjorn Lemmer: Experimental heart failure in rats: effects on cardiovascular circadian rhythms and on myocardial β-adrenergic signaling. Cardiovasc Res 47 (2): […], 2000; Kozo Okamoto: Spontaneous hypertension in rats. Int Rev Exp Pathol 7: 227-270, 1969; Maarten van den Buuse: Circadian Rhythms of Blood Pressure, Heart Rate, and Locomotor Activity in Spontaneously Hypertensive Rats as Measured With Radio-Telemetry. Physiology & Behavior 55(4): 783-787, 1994 B-6. Determination of Pharmacokinetic Parameters Following Intravenous and Oral Administration
The pharmacokinetic parameters of the inventive compounds are determined in male CD-1 mice, male Wistar rats and female beagles. Intravenous administration in the case of mice and rats is effected by means of a species-specific plasma/DMSO formulation, and in the case of dogs by means of a water/PEG400/ethanol formulation. In all species, oral administration of the dissolved substance is performed via gavage, based on a water/PEG400/ethanol formulation. The removal of blood from rats is simplified by inserting a silicone catheter into the right Vena jugularis externa prior to substance administration. The operation is effected at least one day prior to the experiment with isofluran anaesthesia and administration of an analgesic (atropine/rimadyl (3/1) 0.1 ml s.c.). The blood is taken (generally more than 10 time points) within a time window including terminal time points of at least 24 to a maximum of 72 hours after substance administration. The blood is removed into heparinized tubes. The blood plasma is then obtained by centrifugation; if required, it can be stored at −20° C. until further processing.
An internal standard (which may also be a chemically unrelated substance) is added to the samples of the inventive compounds, calibration samples and qualifiers, and there follows protein precipitation by means of acetonitrile in excess. Addition of a buffer solution matched to the LC conditions, and subsequent vortexing, is followed by centrifugation at 1000 g. The supernatant is analysed by means of LC-MS/MS using C18 reversed-phase columns and variable mobile phase mixtures. The substances are quantified via the peak heights or areas from extracted ion chromatograms of specific selected ion monitoring experiments.
The plasma concentration/time plots determined are used to calculate the pharmacokinetic parameters such as AUC, Cmax, t1/2 (terminal half-life), F (bioavailability), MRT (mean residence time) and CL (clearance), by means of a validated pharmacokinetic calculation program.
Since the substance quantification is performed in plasma, it is necessary to determine the blood/plasma distribution of the substance in order to be able to adjust the pharmacokinetic parameters correspondingly. For this purpose, a defined amount of substance is incubated in heparinized whole blood of the species in question in a rocking roller mixer for 20 min. After centrifugation at 1000 g, the plasma concentration is measured (by means of LC-MS/MS; see above) and determined by calculating the ratio of the Cblood/Cplasma value.

[2] = biological target: T1, recombinant guanylate cyclase reporter cell line (Rattus norvegicus, UniProt P19686+P20595); test: Effect on a recombinant guanylate cyclase reporter cell line (B-2); type: cell-based; settings: in some cases mean values for individual determinations
T1 construct: expressed in transfected cells
T1 sequence (P19686 1-690): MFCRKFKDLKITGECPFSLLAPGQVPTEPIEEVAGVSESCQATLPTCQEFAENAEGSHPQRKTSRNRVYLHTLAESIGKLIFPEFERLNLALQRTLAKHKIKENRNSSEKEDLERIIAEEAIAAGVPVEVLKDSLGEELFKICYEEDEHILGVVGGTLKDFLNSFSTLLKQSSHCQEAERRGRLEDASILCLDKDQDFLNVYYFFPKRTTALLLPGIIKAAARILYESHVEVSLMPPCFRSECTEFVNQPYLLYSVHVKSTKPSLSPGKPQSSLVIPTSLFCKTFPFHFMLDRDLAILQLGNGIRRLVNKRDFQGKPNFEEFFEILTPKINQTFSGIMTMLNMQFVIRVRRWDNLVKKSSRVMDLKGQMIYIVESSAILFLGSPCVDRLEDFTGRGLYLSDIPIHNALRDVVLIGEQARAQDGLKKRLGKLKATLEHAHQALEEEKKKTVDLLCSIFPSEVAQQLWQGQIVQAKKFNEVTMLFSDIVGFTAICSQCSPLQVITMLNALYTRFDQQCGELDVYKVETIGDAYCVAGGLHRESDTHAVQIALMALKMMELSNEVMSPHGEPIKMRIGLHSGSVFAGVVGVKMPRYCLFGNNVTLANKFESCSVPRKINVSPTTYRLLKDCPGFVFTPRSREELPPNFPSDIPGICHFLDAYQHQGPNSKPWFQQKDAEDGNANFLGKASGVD
T1 sequence (P20595 1-619): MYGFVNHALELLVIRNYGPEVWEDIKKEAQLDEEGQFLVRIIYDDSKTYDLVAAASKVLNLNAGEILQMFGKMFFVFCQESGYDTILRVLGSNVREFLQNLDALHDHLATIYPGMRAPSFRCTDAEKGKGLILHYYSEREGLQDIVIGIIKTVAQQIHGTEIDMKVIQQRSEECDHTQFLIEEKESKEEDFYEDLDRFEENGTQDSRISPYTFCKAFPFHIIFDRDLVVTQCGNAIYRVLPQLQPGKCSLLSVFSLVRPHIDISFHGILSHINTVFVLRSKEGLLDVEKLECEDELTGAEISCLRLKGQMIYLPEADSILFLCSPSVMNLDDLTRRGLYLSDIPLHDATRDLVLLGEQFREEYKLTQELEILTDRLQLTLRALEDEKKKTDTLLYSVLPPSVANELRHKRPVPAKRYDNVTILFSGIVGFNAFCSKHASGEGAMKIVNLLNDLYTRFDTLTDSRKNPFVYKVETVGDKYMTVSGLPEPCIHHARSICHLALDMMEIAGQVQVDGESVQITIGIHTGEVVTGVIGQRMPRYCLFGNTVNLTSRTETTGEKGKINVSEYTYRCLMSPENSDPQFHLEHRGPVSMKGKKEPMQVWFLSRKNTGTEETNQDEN
Procedure: B-2. Effect on a Recombinant Guanylate Cyclase Reporter Cell Line
The cellular effect of the inventive compounds is determined using a recombinant guanylate cyclase reporter cell line, as described in F. Wunder et al., Anal. Biochem. 339, 104-112 (2005).
Representative MEC values (MEC=minimum effective concentration) for the inventive compounds are shown in the table below (in some cases as mean values for individual determinations): […]

Structure (SMILES)	AUCnormal [1]	CLblood [1]	MRT [1]	half-life [1]	MEC (minimum effective concentration) [2]
CCCC(C)(N)CNC(=O)c1c(C2CC2)nn2c(OCc3c(F)ccc(F)c3F)cc(C)cc12 (single isomer, unassigned; enantiomer b) [Example 169, ent-N-(2-Amino-2-methylpentyl)-2-cyclopropyl-5-methyl-7-[(2,3,6-trifluorobenzyl)oxy]pyrazolo[1,5-a]pyridine-3-carboxamide (Enantiomer B)]	0.44 kg·h/L	36.8 mL/min/kg	4.9 h	4 h	0.2 µM
Cc1cc(OCc2c(F)ccc(F)c2F)n2nc(C3CC3)c(C(=O)NCC(C)(N)CCC(F)(F)F)c2c1 (single isomer, unassigned; enantiomer b) [Example 170, ent-N-(2-Amino-5,5,5-trifluoro-2-methylpentyl)-2-cyclopropyl-5-methyl-7-[(2,3,6-trifluorobenzyl)oxy]pyrazolo[1,5-a]pyridine-3-carboxamide (Enantiomer B)]	0.32 kg·h/L	48.7 mL/min/kg	3.4 h	2.6 h	0.1 µM
CCCC(C)(N)CNC(=O)c1c(C2CC2)nn2c(OCc3c(F)cccc3F)cc(C)cc12 (single isomer, unassigned) [Example 55, ent-N-(2-Amino-2-methylpentyl)-2-cyclopropyl-7-[(2,6-difluorobenzyl)oxy]-5-methylpyrazolo[1,5-a]pyridine-3-carboxamide]	0.37 kg·h/L	46 mL/min/kg	3.5 h	2.6 h	0.1 µM
CCCC(C)(N)CNC(=O)c1c(C)nn2c(OCc3c(F)cccc3F)cc(C)cc12 (single isomer, unassigned) [Example 39, ent-N-(2-Amino-2-methylpentyl)-7-[(2,6-difluorobenzyl)oxy]-2,5-dimethylpyrazolo[1,5-a]pyridine-3-carboxamide]	0.53 kg·h/L	41 mL/min/kg	7.8 h	6.2 h	0.3 µM
Cc1cc(OCc2c(F)cccc2F)n2nc(C)c(C(=O)NCC(C)(N)CCC(F)(F)F)c2c1 (single isomer, unassigned) [Example 43, ent-N-(2-Amino-5,5,5-trifluoro-2-methylpentyl)-7-[(2,6-difluorobenzyl)oxy]-2,5-dimethylpyrazolo[1,5-a]pyridine-3-carboxamide]	0.49 kg·h/L	42.7 mL/min/kg	7.4 h	5.9 h	0.1 µM
C=Cc1cccc(C(N)CNC(=O)c2c(C)nn3c(OCc4c(F)cccc4F)cc(C)cc23)c1 (racemic) [Example 141, rac-N-[2-Amino-2-(3-vinylphenyl)ethyl]-7-[(2,6-difluorobenzyl)oxy]-2,5-dimethylpyrazolo[1,5-a]pyridine-3-carboxamide]	–	–	–	–	3.0 µM
Cc1cc(OCc2c(F)cccc2F)n2nc(C)c(C(=O)NCC(C)(C)N)c2c1 [Example 1, N-(2-Amino-2-methylpropyl)-7-[(2,6-difluorobenzyl)oxy]-2,5-dimethylpyrazolo[1,5-a]pyridine-3-carboxamide formate]	–	–	–	–	2 µM
Cc1cc(OCc2c(F)cccc2F)n2nc(C)c(C(=O)NCC(N)c3ccc(C)o3)c2c1 (racemic) [Example 104, rac-N-[2-Amino-2-(5-methyl-2-furyl)ethyl]-7-[(2,6-difluorobenzyl)oxy]-2,5-dimethylpyrazolo[1,5-a]pyridine-3-carboxamide]	–	–	–	–	3.0 µM

Now from value to compound:

AUCnormal [1]	CLblood [1]	MRT [1]	half-life [1]	MEC (minimum effective concentration) [2]	Structure (SMILES)
0.45 kg·h/L	36.5 mL/min/kg	4.3 h	3.2 h	0.1 µM	Cc1cc(OCc2c(F)ccc(F)c2F)n2nc(C)c(C(=O)NCC(C)(N)CCC(F)(F)F)c2c1 (single isomer, unassigned; enantiomer b) [Example 168, ent-N-(2-Amino-5,5,5-trifluoro-2-methylpentyl)-2,5-dimethyl-7-[(2,3,6-trifluorobenzyl)oxy]pyrazolo[1,5-a]pyridine-3-carboxamide (Enantiomer B)]
–	–	–	–	3.0 µM	CCOC(=O)c1cccc(C(CN)NC(=O)c2c(C)nn3c(OCc4c(F)cccc4F)cc(C)cc23)n1 (racemic) [Example 83, rac-Ethyl 6-{2-amino-1-[({7-[(2,6-difluorobenzyl)oxy]-2,5-dimethylpyrazolo[1,5-a]pyridin-3-yl}carbonyl)amino]ethyl} pyridine-2-carboxylate trifluoroacetate]
–	–	–	–	10 µM	Cc1cc(OCc2c(F)cccc2F)n2nc(C)c(C(=O)NCC(N)c3cccc(OCCO)c3)c2c1 (racemic) [Example 72, rac-N-{2-Amino-2-[3-(2-hydroxyethoxy)phenyl]ethyl]-7-[(2,6-difluorobenzyl)oxy]-2,5-dimethylpyrazolo[1,5-a]pyridine-3-carboxamide trifluoroacetate]
–	–	–	–	0.3 µM	Cc1cc(OCc2c(F)cccc2F)n2nc(C)c(C(=O)NCC(C)(N)CCF)c2c1 (racemic) [Example 48, rac-N-(2-Amino-4-fluoro-2-methylbutyl)-7-[(2,6-difluorobenzyl)oxy]-2,5-dimethylpyrazolo[1,5-a]pyridine-3-carboxamide]

From US9422285B2, “Substituted pyrazolo[1,5-A]-pyridine-3-carboxamides and use thereof” (Bayer Pharma Aktiengesellschaft, priority 2014, dated 2016)
